# Measurements reported in patent US11505558B1, “Antiviral heterocyclic compounds” (Enanta Pharmaceuticals, Inc., priority 2019, dated 2022).
# Tested on: genotype A, "Long" strain RSV
# Test: RSV-A assay (CPE, ATPlite readout in Hep-2 cells)
# Type: cell-based
# Details: human respiratory syncytial virus, HEp-2, Hep-2 cells, genotype A "Long" strain RSV, MOI 0.1; read-out: Human RSV-A (“Long” strain) EC50
# Description: Hep-2 cells, (originally derived from tumors grown in irradiated-cortisonised weanling rats that had been injected with epidermoid carcinoma tissue from a person's larynx, but later found to be indistinguishable from HeLa cells by PCR DNA analysis), were used for the culturing of genotype A, “Long” strain RSV. Flasks were inoculated with RSV and viral stocks were collected once cytopathic effect (CPE) was greater than […]. Viral stocks in […] sucrose media were snap frozen using liquid nitrogen to increase viral stability. Viral stock titers were quantified by tissue culture infectious dose 50% (TCID50) using 8,000 cells per well and 3-fold viral dilutions across a 96-well plate, cultured for 4 days. Viral stock titers were also quantified by a plaque forming unit assay, as described elsewhere.
# Following extensive parameter testing, the final assay is run as follows: Hep-2 cells are seeded into the inner 60 wells of a 96-well plate at 8,000 cells per well in a volume of 50 μL using Growth Media (DMEM without phenol red, 1% L-Glut, 1% Penn/Strep, 1% nonessential amino acids, 10% heat-inactivated FBS). 2-fold serial dilutions of control and test compounds are added to the wells in duplicate in a total volume of 25 μL. Viral stock is then added to the wells at a multiplicity of infection (MOI) of 0.1 in a volume of 25 μL, bringing the total volume of each well to 100 μL. The MOI is calculated using the PFU/mL, or TCID50 if unavailable. Each 96-well plate has a control column of 6 wells with cells and virus but no compound (negative control, max CPE), a column with cells but no compound or virus (positive control, minimum CPE), and a column with no cells or virus or compound (background plate/reagent control). The control wells with cells but no virus are given an additional 25 μL of growth media containing an equal quantity of sucrose as those wells receiving the viral stock in order to keep consistent in media and volume conditions. The outer wells of the plate are filled with 125 μL of moat media (DMEM, 1% Penn/Strep) to act as a thermal and evaporative moat around the test wells. Following a 5-day incubation period, the plates are read using ATPlite (50 uL added per well), which quantifies the amount of ATP (a measure of cell health) present in each well. Assay plates are read using the Envision luminometer. […] EC50 ranges are as follows: A<0.2 μM; B>0.2 μM.
row,EC50 [nM],Compound
1,< 200,C[C@]1(C(N)=O)COc2c1cc([C@@](O)(CNC(=O)c1cc3c(F)cc(F)cc3[nH]1)C(F)(F)F)nc2-c1ccc(F)cc1 [Example 596]
2,> 200,COc1cc(C(=O)NC[C@](O)(c2cc3c(c(C#Cc4ccccc4)n2)OC[C@]3(C)C(N)=O)C(F)(F)F)ccc1OC1CC1 [Example 515]
3,> 200,COc1cccc(C(=O)NC[C@](O)(c2cc3c(c(-c4ccc(F)cc4)n2)OC[C@]3(C)C(N)=O)C(F)(F)F)c1 [Example 309]
4,> 200,C[C@]1(C(N)=O)COc2c1cc([C@@](O)(CNC(=O)c1n[nH]c3ccncc13)C(F)(F)F)nc2-c1ccc(F)cc1 [Example 293]
5,< 200,COc1cc(C(=O)NC[C@](O)(c2cc3c(c(-c4ccc(F)c(Cl)c4)n2)OC[C@]3(C)C(N)=O)C(F)(F)F)cc2cn(C)nc12 [Example 428]
6,> 200,C[C@]1(C(N)=O)COc2c1cc([C@@](O)(CNC(=O)c1cnn3cccnc13)C(F)(F)F)nc2-c1ccc(F)cc1 [Example 585]
7,> 200,COc1ccc2c(C(=O)NC[C@](O)(c3cc4c(c(-c5ccc(F)cc5)n3)OC[C@]4(C)C(N)=O)C(F)(F)F)n[nH]c2c1 [Example 331]
8,> 200,Cc1cc(-c2nc([C@@](O)(CNC(=O)c3cc(OC4CC4)c4ncccc4c3)C(F)(F)F)cc3c2OC[C@]3(C)C(=O)NCC(C)(C)O)ccc1F [Example 504]
9,< 200,CC(C)(O)CNC(=O)Nc1cc(C(=O)NC[C@](O)(c2cc3c(c(-c4ccc(F)cc4)n2)OC[C@]3(C)C(N)=O)C(F)(F)F)cc2cccnc12 [Example 412]
10,> 200,COc1cc(C(=O)NC[C@](O)(c2cc3c(c(-c4ccc(F)cc4)n2)OC[C@]3(C)C(N)=O)C(F)(F)F)ccc1C#N [Example 318]
11,< 200,CCc1cnc2c(OCC(N)=O)cc(C(=O)NC[C@](O)(c3cc4c(c(-c5ccc(F)c(Cl)c5)n3)OC[C@]4(C)C(N)=O)C(F)(F)F)cc2c1 [Example 369]
12,< 200,Cc1cnc2c(NC(=O)NC3COC3)cc(C(=O)NC[C@](O)(c3cc4c(c(-c5ccc(F)cc5)n3)OC[C@]4(C)C(N)=O)C(F)(F)F)cc2c1 [Example 559]
13,< 200,C[C@]1(C(N)=O)COc2c1cc([C@@](O)(CNC(=O)c1cc(Nc3ccccn3)c3ncccc3c1)C(F)(F)F)nc2-c1ccc(F)cc1 [Example 338]
14,< 200,COc1ccc2cc(C(=O)NC[C@](O)(c3cc4c(c(-c5ccc(F)cc5)n3)OC[C@]4(C)C(N)=O)C(F)(F)F)[nH]c2c1 [Example 304]
15,< 200,Cc1cnc2c(Nc3ncccn3)cc(C(=O)NC[C@](O)(c3cc4c(c(-c5ccc(F)cc5)n3)OC[C@]4(C)C(N)=O)C(F)(F)F)cc2c1 [Example 346]
16,< 200,CC(C)(O)CCNC(=O)[C@@]1(C)COc2c1cc([C@@](O)(CNC(=O)c1cc(OC3CC3)c3ncccc3c1)C(F)(F)F)nc2-c1ccc(F)cc1 [Example 483]
17,> 200,C[C@]1(C(N)=O)COc2c1cc([C@@](O)(CNC(=O)c1ccc(F)c(C#N)c1)C(F)(F)F)nc2-c1ccc(F)cc1 [Example 324]
18,< 200,CNC(=O)[C@@]1(C)COc2c1cc([C@@](O)(CNC(=O)c1cc(OCC(N)=O)c3ncccc3c1)C(F)(F)F)nc2-c1ccc(F)cc1 [Example 276]
19,< 200,C[C@]1(C(N)=O)COc2c1cc([C@@](O)(CNC(=O)c1cc(OCC(F)F)c3ncccc3c1)C(F)(F)F)nc2-c1ccc(F)cc1 [Example 285]
20,< 200,C[C@]1(C(N)=O)COc2c1cc([C@@](O)(CNC(=O)c1ccc3nc(NC4CC4)sc3c1)C(F)(F)F)nc2-c1ccc(F)cc1 [Example 440]
21,< 200,C[C@]1(C(N)=O)COc2c1cc([C@@](O)(CNC(=O)c1cc(OC3CC3)c3ncccc3c1)C(F)(F)F)nc2-c1ccc(Cl)c(F)c1 [Example 282]
22,> 200,C[C@]1(C(N)=O)COc2c1cc([C@@](O)(CNC(=O)c1cc(OCCNC(N)=O)c3ncccc3c1)C(F)(F)F)nc2-c1ccc(F)cc1 [Example 359]
23,> 200,C[C@]1(C(=O)NCCc2ccccc2)COc2c1cc([C@@](O)(CNC(=O)c1cc(OC3CC3)c3ncccc3c1)C(F)(F)F)nc2-c1ccc(F)cc1 [Example 486]
24,> 200,COc1cc(C(=O)NC[C@](O)(c2cc3c(c(C#Cc4ccc(F)cc4)n2)OC[C@]3(C)C(N)=O)C(F)(F)F)ccc1OC1CC1 [Example 510]
25,< 200,COc1cc(C(=O)NC[C@](O)(c2cc3c(c(-c4ccc(F)cc4)n2)OC[C@]3(C)C(=O)NCC(C)(C)O)C(F)(F)F)cc2sc(N)nc12 [Example 502]
26,< 200,C[C@]1(C(N)=O)COc2c1cc([C@@](O)(CNC(=O)c1ccc3ccncc3c1)C(F)(F)F)nc2-c1ccc(F)cc1 [Example 268]
27,< 200,CN1Cc2cc(C(=O)NC[C@](O)(c3cc4c(c(-c5ccc(F)cc5)n3)OC[C@]4(C)C(=O)NCC(C)(C)O)C(F)(F)F)ccc2C1=O [Example 643]
28,> 200,C[C@]1(C(N)=O)COc2c1cc([C@@](O)(CNC(=O)c1cc(OCC(=O)NC[C@@H](O)CO)c3ncccc3c1)C(F)(F)F)nc2-c1ccc(F)cc1 [Example 379]

# The next lines start with the molecule.
row,Compound,EC50 [nM]
1,Cc1ccc2cc(C(=O)NC[C@](O)(c3cc4c(c(-c5ccc(F)cc5)n3)OC[C@]4(C)C(N)=O)C(F)(F)F)cc(O)c2n1 [Example 226],< 200
2,C[C@]1(C(N)=O)COc2c1cc([C@@](O)(CNC(=O)c1ccc(OC3CC3)c(-c3ccncc3)c1)C(F)(F)F)nc2-c1ccc(F)cc1 [Example 119],> 200
3,C[C@]1(C(N)=O)COc2c1cc([C@@](O)(CNC(=O)c1ccc3nccnc3c1)C(F)(F)F)nc2-c1ccc(F)cc1 [Example 234],> 200
4,C[C@]1(C(N)=O)COc2c1cc([C@@](O)(CNC(=O)c1ccc(-c3cnc(C4CC4)nc3)c(OC3CC3)c1)C(F)(F)F)nc2-c1ccc(F)cc1 [Example 165],> 200
5,Cc1nocc1-c1ccc(C(=O)NC[C@](O)(c2cc3c(c(-c4ccc(F)cc4)n2)OC[C@]3(C)C(N)=O)C(F)(F)F)cc1OC1CC1 [Example 181],< 200
6,Cc1ccc(-c2ccc(C(=O)NC[C@](O)(c3cc4c(c(-c5ccc(F)cc5)n3)OC[C@]4(C)C(N)=O)C(F)(F)F)cc2OC2CC2)cn1 [Example 146],> 200
7,COc1cc(C(=O)NC[C@](O)(c2cc3c(c(-c4ccc(F)cc4)n2)OC[C@]3(C)C(N)=O)C(F)(F)F)ccc1-c1nnco1 [Example 200],< 200
8,COc1cc(C(=O)NC[C@](O)(c2cc3c(c(-c4ccc(F)cc4)n2)OC[C@]3(C)C(N)=O)C(F)(F)F)ccc1OC(F)F [Example 67],< 200
9,C[C@]1(C(N)=O)COc2c1cc([C@@](O)(CNC(=O)c1ccc(-c3ncco3)c(OC3CC3)c1)C(F)(F)F)nc2-c1ccc(F)cc1 [Example 171],< 200
10,C[C@]1(C(N)=O)COc2c1cc([C@@](O)(CNC(=O)c1ccc(-c3cccnc3C(F)(F)F)c(OC3CC3)c1)C(F)(F)F)nc2-c1ccc(F)cc1 [Example 145],> 200
11,C[C@]1(C(N)=O)COc2c1cc([C@@](O)(CNC(=O)c1ccc(-c3cnccc3C(F)(F)F)c(OC3CC3)c1)C(F)(F)F)nc2-c1ccc(F)cc1 [Example 149],> 200
12,C[C@]1(C(N)=O)COc2c1cc([C@@](O)(CNC(=O)c1cc(Cl)c3ncccc3c1)C(F)(F)F)nc2-c1ccc(F)c(Cl)c1 [Example 220],< 200
13,C[C@]1(C(N)=O)COc2c1cc([C@@](O)(CNC(=O)c1cc(OC(F)F)c3ncccc3c1)C(F)(F)F)nc2-c1ccc(F)cc1 [Example 59],< 200
14,Cc1cccc(-c2cc(C(=O)NC[C@](O)(c3cc4c(c(-c5ccc(F)cc5)n3)OC[C@]4(C)C(N)=O)C(F)(F)F)ccc2OC2CC2)n1 [Example 109],< 200
15,C[C@]1(C(N)=O)COc2c1cc([C@@](O)(CNC(=O)c1ccc(N3CCCCC3)c(OC3CC3)c1)C(F)(F)F)nc2-c1ccc(F)cc1 [Example 161],> 200
16,COc1cc(C(=O)NC[C@](O)(c2cc3c(c(-c4ccc(F)cc4)n2)OC[C@]3(C)C(=O)NCC(F)(F)F)C(F)(F)F)cc2cccnc12 [Example 48],< 200
17,COc1cc(C(=O)NC[C@](O)(c2cc3c(c(-c4ccc(F)cc4)n2)OC[C@]3(C)C(N)=O)C(F)(F)F)ccc1OCCN1CCOCC1 [Example 188],> 200
18,C[C@@H](O)COc1ccc(C(=O)NC[C@](O)(c2cc3c(c(-c4ccc(F)cc4)n2)OC[C@]3(C)C(N)=O)C(F)(F)F)cc1-c1cncnc1 [Example 203],> 200
19,Cc1ccnc2c(O)cc(C(=O)NC[C@](O)(c3cc4c(c(-c5ccc(F)cc5)n3)OC[C@]4(C)C(N)=O)C(F)(F)F)cc12 [Example 250],> 200
20,COc1cc(C(=O)NC[C@](O)(c2cc3c(c(-c4ccc(F)cc4)n2)OC[C@]3(C)C(=O)NC23CC(C2)C3)C(F)(F)F)cc2cccnc12 [Example 54],< 200
